Measured values taken from publication PMC8119466, “A screen of FDA-approved drugs identifies inhibitors of protein tyrosine phosphatase 4A3 (PTP4A3 or PRL-3)” (Scientific Reports, 2021).
Structures can show the parent of a compound that is named as a salt. Where two headings read alike, the source gives them in different places.

Key:
Format in all cases: biochemical
recombinant PRL-2 = target: T1, recombinant PRL-2 (Homo sapiens, UniProt Q12974); test: In vitro phosphatase assay (DiFMUP hydrolysis), PRL-2;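 further: PRL-2 activity read as DiFMUP hydrolysis after 20 min at room temperature with drug, enzyme first pre-reduced at 4 °C for 20 min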
T1 construct: 6xHis (N, cleaved yes); made in house; host or cells: E. coli One Shot BL21 Star
T1 sequence (Q12974 1-167): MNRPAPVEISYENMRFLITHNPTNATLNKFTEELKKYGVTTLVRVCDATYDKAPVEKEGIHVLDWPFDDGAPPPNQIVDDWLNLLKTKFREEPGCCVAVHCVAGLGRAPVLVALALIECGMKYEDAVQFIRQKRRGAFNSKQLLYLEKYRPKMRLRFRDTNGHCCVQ

recombinant PRL-1 = target: T2, recombinant PRL-1 (Homo sapiens, UniProt Q93096); test: In vitro phosphatase assay (DiFMUP hydrolysis), PRL-1; further: test concentration or dose not given here
T2 construct: 6xHis (N, cleaved yes); made in house; host or cells: E. coli One Shot BL21 Star
T2 sequence (Q93096 1-173): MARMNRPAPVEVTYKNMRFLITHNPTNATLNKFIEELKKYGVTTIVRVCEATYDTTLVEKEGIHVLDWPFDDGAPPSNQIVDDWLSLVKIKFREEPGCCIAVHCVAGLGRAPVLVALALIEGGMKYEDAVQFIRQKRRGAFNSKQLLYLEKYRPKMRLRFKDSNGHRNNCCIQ

recombinant PRL-3 = target: T3, recombinant PRL-3 (Homo sapiens, UniProt O75365); test: In vitro phosphatase assay (DiFMUP hydrolysis), PRL-3; further: test concentration or dose not given here
T3 construct: 6xHis (N, cleaved yes); made in house; host or cells: E. coli One Shot BL21 Star

[1] = FDA-approved drug screen, activity compared to DMSO
[2] = FDA-approved drug screen, compared to DMSO

T3 sequence (O75365 whole entry): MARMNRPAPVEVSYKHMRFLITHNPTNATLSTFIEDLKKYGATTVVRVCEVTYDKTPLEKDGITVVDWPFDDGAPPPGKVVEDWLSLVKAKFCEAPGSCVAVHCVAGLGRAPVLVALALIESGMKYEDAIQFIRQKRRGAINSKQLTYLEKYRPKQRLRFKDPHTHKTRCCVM

SMILES | % Phosphatase Activity (compared to DMSO) PRL-2 (recombinant PRL-2; [2]) | % Phosphatase Activity (compared to DMSO) PRL-1 (recombinant PRL-1; [2]) | % Phosphatase Activity (compared to DMSO) PRL-3 (recombinant PRL-3; [2]) | further results
CO[C@H]1C[C@@H]2CC[C@@H](C)[C@@](O)(O2)C(=O)C(=O)N2CCCC[C@H]2C(=O)O[C@H]([C@H](C)C[C@@H]2CC[C@@H](OC(=O)C(C)(CO)CO)[C@H](OC)C2)CC(=O)[C@H](C)/C=C(\C)[C@@H](O)[C@@H](OC)C(=O)[C@H](C)C[C@H](C)/C=C/C=C/C=C/1C [Temsirolimus (CCI-779, NSC 683864)] |  |  |  | % Phosphatase Activity (compared to DMSO) PRL-2 (recombinant PRL-2; [1]): 111%; % Phosphatase Activity (compared to DMSO) PRL-1 (recombinant PRL-1; [1]): 96%; % Phosphatase Activity (compared to DMSO) PRL-3 (recombinant PRL-3; [1]): 91%
COc1cc2ncnc(Nc3ccc(F)c(Cl)c3)c2cc1NC(=O)/C=C/CN1CCCCC1 [Dacomitinib (PF299804, PF299)] | 147% | 145% | 120% | 
Cc1c(-c2ccccc2)oc2c(C(=O)OCCN3CCCCC3)cccc2c1=O [Flavoxate HCl] | 109% | 103% | 113% | 
CC(C)NCC(O)c1ccc(O)c(O)c1.Cl (stereo not drawn) [Isoprenaline HCl] | 124% | 114% | 94% | 
N[C@@H](CCC(=O)N[C@@H](CS)C(=O)NCC(=O)O)C(=O)O [Glutathione] |  |  |  | % Phosphatase Activity (compared to DMSO) PRL-2 (recombinant PRL-2): 87%; % Phosphatase Activity (compared to DMSO) PRL-1 (recombinant PRL-1): 93%; % Phosphatase Activity (compared to DMSO) PRL-3 (recombinant PRL-3): 112%
CCCCc1nc(Cl)c(CO)n1Cc1ccc(-c2ccccc2-c2nnn[n-]2)cc1.[K+] [Losartan Potassium (DuP 753)] | 93% | 94% | 71% | 
N#Cc1ccc(C(c2ccc(C#N)cc2)n2cncn2)cc1 [Letrozole] | 85% | 94% | 74% | 
c1ccc(C2CN3CCSC3=N2)cc1 (single isomer, unassigned; (-)) [(-)-Tetramisole] |  |  |  | % Phosphatase Activity (compared to DMSO) PRL-2 (recombinant PRL-2): 92%; % Phosphatase Activity (compared to DMSO) PRL-1 (recombinant PRL-1): 93%; % Phosphatase Activity (compared to DMSO) PRL-3 (recombinant PRL-3): 99%
CC1(C)[C@@H](OC(=O)CCC(=O)O)CC[C@]2(C)[C@H]3C(=O)C=C4[C@@H]5C[C@@](C)(C(=O)O)CC[C@]5(C)CC[C@@]4(C)[C@]3(C)CC[C@@H]12 [Carbenoxolone Sodium] | 73% | 85% | 84% | 
CCOC(=O)N[C@@H]1CC[C@@H]2[C@@H](C1)C[C@H]1C(=O)O[C@H](C)[C@H]1[C@H]2/C=C/c1ccc(-c2cccc(F)c2)cn1 [Vorapaxar] |  |  |  | % Phosphatase Activity (compared to DMSO) PRL-2 (recombinant PRL-2; [1]): 73%; % Phosphatase Activity (compared to DMSO) PRL-1 (recombinant PRL-1; [1]): 95%; % Phosphatase Activity (compared to DMSO) PRL-3 (recombinant PRL-3; [1]): 86%
CCCCC1=NC2(CCCC2)C(=O)N1Cc1ccc(-c2ccccc2-c2nnn[nH]2)cc1 [Irbesartan] | 87% | 95% | 84% | 
Cc1ccc(C)c(OCCCC(C)(C)C(=O)O)c1 [Gemfibrozil] | 95% | 93% | 76% | 
NCC[C@H](O)C(=O)N[C@@H]1C[C@H](N)[C@@H](O[C@H]2O[C@H](CN)[C@@H](O)[C@H](O)[C@H]2O)[C@H](O)[C@H]1O[C@H]1O[C@H](CO)[C@@H](O)[C@H](N)[C@H]1O [Amikacin hydrate] | 95% | 91% | 107% | 
CCOC(=O)C1=C(COCCN)NC(C)=C(C(=O)OC)C1c1ccccc1Cl (stereo not drawn) [Amlodipine] | 157% | 145% | 149% | 
Cc1nc(-c2ccc(OCC(C)C)c(C#N)c2)sc1C(=O)O [Febuxostat] | 85% | 95% | 89% | 
C[n+]1ccccc1/C=N/O.[Cl-] [Pralidoxime (chloride)] | 91% | 99% | 105% | 
c1ccc(CC2=NCCN2)cc1 [Tolazoline HCl] |  |  |  | % Phosphatase Activity (compared to DMSO) PRL-2 (recombinant PRL-2; [1]): 110%; % Phosphatase Activity (compared to DMSO) PRL-1 (recombinant PRL-1; [1]): 100%; % Phosphatase Activity (compared to DMSO) PRL-3 (recombinant PRL-3; [1]): 91%
Cc1ccnc2c1NC(=O)c1cccnc1N2C1CC1 [Nevirapine] | 101% | 85% | 111% | 
CCCc1nn(C)c2c(=O)[nH]c(-c3cc(S(=O)(=O)N4CCN(C)CC4)ccc3OCC)nc12 [Sildenafil] |  |  |  | % Phosphatase Activity (compared to DMSO) PRL-2 (recombinant PRL-2; [1]): 72%; % Phosphatase Activity (compared to DMSO) PRL-1 (recombinant PRL-1; [1]): 75%; % Phosphatase Activity (compared to DMSO) PRL-3 (recombinant PRL-3; [1]): 99%

SMILES | % Phosphatase Activity (compared to DMSO) PRL-2 (recombinant PRL-2; [2]) | % Phosphatase Activity (compared to DMSO) PRL-1 (recombinant PRL-1; [2]) | % Phosphatase Activity (compared to DMSO) PRL-3 (recombinant PRL-3; [2]) | further results
Cc1ccc(-c2ncc(Cl)cc2-c2ccc(S(C)(=O)=O)cc2)cn1 [Etoricoxib] | 102% | 93% | 91% | 
CC[C@@]1(O)C(=O)OCc2c1cc1n(c2=O)Cc2cc3c(CN(C)C)c(O)ccc3nc2-1 [Topotecan HCl] |  |  |  | % Phosphatase Activity (compared to DMSO) PRL-2 (recombinant PRL-2; [1]): 192%; % Phosphatase Activity (compared to DMSO) PRL-1 (recombinant PRL-1; [1]): 168%; % Phosphatase Activity (compared to DMSO) PRL-3 (recombinant PRL-3; [1]): 140%
O=C(O)c1ccc2c(c1)nc(Nc1cccc(Cl)c1)c1ccncc12 [CX-4945 (Silmitasertib)] | 81% | 85% | 86% | 
CN(C)/N=N/c1[nH]cnc1C(N)=O [Dacarbazine] | 98% | 92% | 76% | 
CCN(c1cc(-c2ccc(CN3CCOCC3)cc2)cc(C(=O)NCc2c(C)cc(C)[nH]c2=O)c1C)C1CCOCC1 [EPZ-6438] | 77% | 85% | 95% | 
COc1cc2nc(N3CCN(C(=O)C4CCCO4)CC3)nc(N)c2cc1OC (stereo not drawn) [Terazosin HCl] |  |  |  | % Phosphatase Activity (compared to DMSO) PRL-2 (recombinant PRL-2; [1]): 644%; % Phosphatase Activity (compared to DMSO) PRL-1 (recombinant PRL-1; [1]): 510%; % Phosphatase Activity (compared to DMSO) PRL-3 (recombinant PRL-3; [1]): 324%
Nc1c(CC(=O)O)cccc1C(=O)c1ccc(Br)cc1 [Bromfenac Sodium] | 99% | 86% | 75% | 
CO[C@H]1C[C@@H]2CC[C@@H](C)[C@@](O)(O2)C(=O)C(=O)N2CCCC[C@H]2C(=O)O[C@H]([C@H](C)C[C@@H]2CC[C@@H](OCCO)[C@H](OC)C2)CC(=O)[C@H](C)/C=C(\C)[C@@H](O)[C@@H](OC)C(=O)[C@H](C)C[C@H](C)/C=C/C=C/C=C/1C [Everolimus (RAD001)] | 86% | 86% | 76% | 
COc1ccccc1OCCNCC(O)COc1cccc2[nH]c3ccccc3c12 (stereo not drawn) [Carvedilol] | 128% | 97% | 111% | 
Cl.N[C@@H]1C[C@H]1c1ccccc1 (racemic) [Tranylcypromine (2-PCPA) HCl] |  |  |  | % Phosphatase Activity (compared to DMSO) PRL-2 (recombinant PRL-2): 110%; % Phosphatase Activity (compared to DMSO) PRL-1 (recombinant PRL-1): 111%; % Phosphatase Activity (compared to DMSO) PRL-3 (recombinant PRL-3): 87%
COc1ccc(CN(CCN(C)C)c2ccccn2)cc1 [Pyrilamine Maleate] | 111% | 94% | 98% | 
CCCCc1oc2ccccc2c1C(=O)c1cc(I)c(OCCN(CC)CC)c(I)c1 [Amiodarone HCl] |  |  |  | % Phosphatase Activity (compared to DMSO) PRL-2 (recombinant PRL-2): 117%; % Phosphatase Activity (compared to DMSO) PRL-1 (recombinant PRL-1): 97%; % Phosphatase Activity (compared to DMSO) PRL-3 (recombinant PRL-3): 102%
CC(=O)SCC(Cc1ccccc1)C(=O)NCC(=O)OCc1ccccc1 (stereo not drawn) [Racecadotril] | 99% | 95% | 76% | 
CCCCCCCCCCCCCCCC(=O)O[C@@H]1[C@@H](O)[C@@H](O)[C@@H]([C@H](NC(=O)[C@@H]2C[C@@H](CCC)CN2C)[C@H](C)Cl)O[C@@H]1SC.Cl [Clindamycin palmitate HCl] | 133% | 107% | 106% | 
Cc1cc(NS(=O)(=O)c2ccc(N)cc2)no1 [Sulfamethoxazole] |  |  |  | % Phosphatase Activity (compared to DMSO) PRL-2 (recombinant PRL-2): 96%; % Phosphatase Activity (compared to DMSO) PRL-1 (recombinant PRL-1): 91%; % Phosphatase Activity (compared to DMSO) PRL-3 (recombinant PRL-3): 86%
Clc1ccc(C(Cn2ccnc2)OCc2ccc(Sc3ccccc3)cc2)c(Cl)c1 (stereo not drawn) [Fenticonazole Nitrate] | 117% | 107% | 110% | 
C=CC(=O)N1CCC(Oc2cc3c(Nc4ccc(Cl)c(Cl)c4F)ncnc3cc2OC)CC1 [Poziotinib (HM781-36B)] | 80% | 96% | 106% | 
CC(O)(CS(=O)(=O)c1ccc(F)cc1)C(=O)Nc1ccc(C#N)c(C(F)(F)F)c1 (stereo not drawn) [Bicalutamide] | 108% | 118% | 99% | 
